For 14 molecules, TGI and GI50 results are on record in PubChem BioAssay (NCI).

SMILES strings stand for the structures. Several values for one entry are separate records, joined by “and”; a condition that tells them apart may be missing. Equal entries are not always repeated.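 Values below derive from 48-hour exposures of cells grown in 96-well plates, with endpoints linearly interpolated between the two concentrations bracketing the appropriate inhibition level. Here, GI50 denotes the concentration required for 50% inhibition of growth. TGI denotes the concentration required for complete inhibition of growth.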

Some test systems named below: TK-10 renal; PC-3 prostate; NCI-H460 lung; M14 melanoma; CCRF-CEM leukemia; SF-268 CNS; UO-31 renal; UACC-257 melanoma; KM12 colon; CAKI-1 renal.
Common to all, as to test: NCI anticancer screen, dose series, 48 h

Turning to `CC(C)C[S+]1C2=C([O-])CC(C)(C)CC2=Nc2ccccc21` (centres undefined), the TGI with TK-10 renal, in the assay with PC-3 prostate, with NCI-H460 lung, with M14 melanoma, in the assay with CCRF-CEM leukemia and with SF-268 CNS was greater than 100 µM in each case. Also, the TGI in the assay on UO-31 renal, in the assay with UACC-257 melanoma, in the assay on KM12 colon and in the assay with CAKI-1 renal was greater than 100 µM in each case.

Regarding `COc1ccccc1C1C2=C(COC2=O)Oc2cc3c(cc21)OCO3` (centres undefined), the TGI is greater than 90.5 µM in the assay with TK-10 renal; greater than 100 µM in the assay with PC-3 prostate; greater than 100 µM with NCI-H460 lung; greater than 33.4 µM with M14 melanoma; 16.8 µM in the assay with CCRF-CEM leukemia; 85.8 µM with SF-268 CNS. The TGI is greater than 33.5 µM in the assay on UO-31 renal, greater than 100 µM in the assay on UACC-257 melanoma, greater than 100 µM in the assay with KM12 colon and greater than 100 µM in the assay with CAKI-1 renal.

Turning to `COc1ccc(/C=C2/N=C(N/N=C\C(O)C(O)C(O)CO)NC2=O)cc1` (centres undefined), the TGI in the assay with TK-10 renal, with PC-3 prostate, in the assay on NCI-H460 lung, in the assay on M14 melanoma, in the assay with CCRF-CEM leukemia and in the assay with SF-268 CNS was greater than 100 µM each time. Moreover, the TGI with UO-31 renal, in the assay on UACC-257 melanoma, in the assay on KM12 colon and with CAKI-1 renal was greater than 100 µM each time. The GI50 is > 100 µM and 39.3 µM in the assay with PC-3 prostate; > 100 µM and 26.9 µM in the assay with KM12 colon.

Turning to `CC(=O)Nc1ccc(NC(=O)CC(=O)Nc2ccc(NC(C)=O)cc2)cc1`, the TGI with TK-10 renal, in the assay with PC-3 prostate, with NCI-H460 lung, in the assay with M14 melanoma, in the assay on CCRF-CEM leukemia and with SF-268 CNS was greater than 100 µM throughout. Moreover, the TGI with UO-31 renal, in the assay with UACC-257 melanoma, in the assay on KM12 colon and with CAKI-1 renal was greater than 100 µM in each case.

Take `Cc1ccc(S(=O)(=O)NC(=O)Nc2c(S(N)(=O)=O)cc(S(N)(=O)=O)c(Cl)c2Cl)cc1`: the TGI in the assay on TK-10 renal, with PC-3 prostate, with NCI-H460 lung, with M14 melanoma, in the assay on CCRF-CEM leukemia and in the assay on SF-268 CNS was greater than 100 µM in each case. Further, the TGI in the assay with UO-31 renal, with UACC-257 melanoma, in the assay with KM12 colon and in the assay on CAKI-1 renal was greater than 100 µM throughout.

Regarding `c1ccc(-c2csc3c2-n2cccc2C3N2CCCC2)cc1` (centres undefined), the TGI was 99.7 µM in the assay on TK-10 renal; greater than 100 µM with PC-3 prostate; greater than 100 µM in the assay on NCI-H460 lung; greater than 100 µM in the assay with CCRF-CEM leukemia; 78.7 µM with SF-268 CNS; greater than 100 µM with UO-31 renal. Moreover, the values for the TGI with UACC-257 melanoma, in the assay on KM12 colon and with CAKI-1 renal were 39.9 µM, greater than 100 µM and greater than 100 µM, respectively.

As to `CCO/C(O)=C(/C(=N)N1CCOCC1)C(=O)Nc1cccc(C(F)(F)F)c1`, the TGI with TK-10 renal, in the assay with PC-3 prostate, in the assay with NCI-H460 lung, with M14 melanoma, with CCRF-CEM leukemia and in the assay with SF-268 CNS was greater than 100 µM throughout. Further, the TGI with UACC-257 melanoma, with KM12 colon and with CAKI-1 renal was greater than 100 µM throughout.

`OC1(c2ccccc2)CC2CCC(C1)N2CCCC(O)(c1ccccc1)c1ccccc1` (centres undefined): the TGI in the assay with TK-10 renal came to 25.8 µM; in the assay with PC-3 prostate, 16.2 µM; in the assay with NCI-H460 lung it was 5.13 µM; in the assay on M14 melanoma it was 30.8 µM; in the assay on CCRF-CEM leukemia, 30.8 µM; in the assay on SF-268 CNS, 30.1 µM. In addition, the TGI with UO-31 renal was determined as 20.2 µM; with UACC-257 melanoma, 4 µM; with KM12 colon, 30.3 µM; with CAKI-1 renal, 27.1 µM.

On to `O=C1CC(c2ccc(Cl)cc2)C2(C(=O)NC(=S)NC2=O)C(c2ccc(Cl)cc2)C1` (centres undefined), for which the TGI in the assay on TK-10 renal was greater than 100 µM; in the assay on PC-3 prostate, 55.1 µM; in the assay on NCI-H460 lung, 30.5 µM; in the assay on M14 melanoma it was 44.7 µM; with CCRF-CEM leukemia, 75.4 µM; in the assay on SF-268 CNS it was 31.9 µM. For the same molecule, the TGI with UO-31 renal amounted to 48.9 µM; in the assay on UACC-257 melanoma, 37.6 µM; in the assay with KM12 colon it was 40.1 µM; in the assay with CAKI-1 renal, 74.6 µM.

On to `CC(=O)O[C@@H]1[C@H](OC2CCCCC2(c2ccccc2)c2ccccc2)O[N+]([O-])=CC12CCCCC2` (some centres undefined), for which the TGI in the assay on TK-10 renal was found to be 30.4 µM; in the assay with PC-3 prostate, 22.6 µM; with NCI-H460 lung, 32.2 µM; in the assay with M14 melanoma, 33.8 µM; in the assay with CCRF-CEM leukemia, 15.7 µM; in the assay on SF-268 CNS, 34.6 µM. Further, the TGI in the assay with UO-31 renal was 31.3 µM; in the assay with UACC-257 melanoma, 32 µM; in the assay with KM12 colon it was 31.2 µM; with CAKI-1 renal, 27.5 µM.

Take `Clc1ccc(Nc2ncco2)cc1Cl`: the TGI in the assay with TK-10 renal, in the assay with PC-3 prostate, with NCI-H460 lung, in the assay with M14 melanoma, with CCRF-CEM leukemia and in the assay with SF-268 CNS was greater than 10 µM throughout. In addition, the TGI in the assay on UO-31 renal, in the assay on UACC-257 melanoma, with KM12 colon and in the assay with CAKI-1 renal was greater than 10 µM in each case.

Turning to `CC(=O)N1C(C(=O)NN2CCOCC2)CSC1c1ccccc1` (centres undefined), the TGI in the assay with TK-10 renal, with PC-3 prostate, in the assay with NCI-H460 lung, in the assay on M14 melanoma, with CCRF-CEM leukemia and in the assay with SF-268 CNS was greater than 100 µM in each case. In addition, the TGI in the assay on UO-31 renal, in the assay on UACC-257 melanoma, in the assay with KM12 colon and in the assay on CAKI-1 renal was greater than 100 µM throughout.

As to `NC(Cc1ccc(O)cn1)C(=O)NC(C(=O)O)c1ccccc1` (centres undefined), the TGI with TK-10 renal, in the assay with PC-3 prostate, in the assay with NCI-H460 lung, in the assay with CCRF-CEM leukemia, in the assay with SF-268 CNS and with UO-31 renal was greater than 100 µM in each case. The TGI with UACC-257 melanoma, with KM12 colon and with CAKI-1 renal was greater than 100 µM each time.

With `CCOC(=O)c1c(N2CCCC2)[nH]c(=O)c(C(c2c(O)c(C(=O)OCC)c(N3CCCC3)[nH]c2=O)C(C)C)c1O`, the TGI with TK-10 renal, with PC-3 prostate, with NCI-H460 lung, with M14 melanoma, with CCRF-CEM leukemia and in the assay with SF-268 CNS was greater than 100 µM throughout. The TGI in the assay on UO-31 renal, with UACC-257 melanoma, in the assay with KM12 colon and with CAKI-1 renal was greater than 100 µM each time.
